Test results from patent US6982330B2, “Carbazole based compound, coloring material, colored high molecular organic material and electroluminescent material” (Dai Nippon Printing Co., LTD, priority 2002, dated 2006).

Key:
[1] = Suppressibility of crystallization (film formation ability) of spin-coated layer on glass plate; format: physicochemical; settings: dried at ambient temperature 30 minutes
Method: A toluene solution containing 2% by weight of the carbazole based compound of the formula (4) synthesized in Example 1 was prepared. Also, the other toluene solution containing 2% by weight of the same carbazole based compound and 2% by weight of an acrylic binder resin was prepared.
For the comparative examples, the other toluene solution containing 2% by weight of the carbazole (available from Sigma Aldrich Co,.) and the still other toluene solution containing 2% by weight of the carbazole and 2% by weight of the acrylic binder resin were prepared.
2 ml of the each toluene solution was dropped on a non-alkaline glass plate with 5 cm-square shape, and carried out a spin coating at 1,000 rotation per minute for about 2 seconds. Thereafter, it was dried at ambient temperature for 30 minutes, and then a surface of the coating layer was observed and evaluation was carried out regarding suitablility of coating and film-formation process and suppressibility of crystallizing.

[2] = Solubility to solvent (toluene or xylene, 2% by weight, 50° C.); format: physicochemical; settings: added so as to make concentration 2% by weight, stirred at 50° C. for one hour
Method: The carbazole based compound of the formula (4) synthesized in Example 1 was added in the toluene or xylene so as to make concentration at 2% by weight, and then stirred in a thermal condition at 50° C. for one hour.

SMILES | crystallization of coating layer (visual observation) ([1]; toluene solution containing 2% by weight of compound alone) | crystallization of coating layer (visual observation) ([1]; toluene solution containing 2% by weight of compound and 2% by weight of acrylic binder resin) | solubility in toluene or xylene [2]
c1ccc2c(c1)[nH]c1ccccc12 [carbazole] | crystallized to an extent that findable by visual observation | crystallized to an extent that findable by visual observation | –
c1cc2cccc3c4cccc5cccc(c(c1)c23)c54 [perylene] | – | – | solubility was insufficient
